Measured values as given in patent US6288091A, “Antiherpes virus compounds and methods for their preparation and use” (Boehringer Ingelheim Ltd., priority 1999, dated 2001).
Where two headings read alike, the source gives them in different places.

Experiments:
HSV-1 helicase-primase = biological target: T1, HSV-1 helicase-primase (Human herpesvirus 1, UniProt P10189+P10236); assay: HSV-1 DNA-dependent ATPase assay (inhibition of HSV-1 helicase-primase); format: biochemical
T1 construct: made in house; host or cells: Sf21 insect cells triply infected with recombinant baculoviruses (UL5, UL8, UL52)
T1 sequence (P10192 whole entry): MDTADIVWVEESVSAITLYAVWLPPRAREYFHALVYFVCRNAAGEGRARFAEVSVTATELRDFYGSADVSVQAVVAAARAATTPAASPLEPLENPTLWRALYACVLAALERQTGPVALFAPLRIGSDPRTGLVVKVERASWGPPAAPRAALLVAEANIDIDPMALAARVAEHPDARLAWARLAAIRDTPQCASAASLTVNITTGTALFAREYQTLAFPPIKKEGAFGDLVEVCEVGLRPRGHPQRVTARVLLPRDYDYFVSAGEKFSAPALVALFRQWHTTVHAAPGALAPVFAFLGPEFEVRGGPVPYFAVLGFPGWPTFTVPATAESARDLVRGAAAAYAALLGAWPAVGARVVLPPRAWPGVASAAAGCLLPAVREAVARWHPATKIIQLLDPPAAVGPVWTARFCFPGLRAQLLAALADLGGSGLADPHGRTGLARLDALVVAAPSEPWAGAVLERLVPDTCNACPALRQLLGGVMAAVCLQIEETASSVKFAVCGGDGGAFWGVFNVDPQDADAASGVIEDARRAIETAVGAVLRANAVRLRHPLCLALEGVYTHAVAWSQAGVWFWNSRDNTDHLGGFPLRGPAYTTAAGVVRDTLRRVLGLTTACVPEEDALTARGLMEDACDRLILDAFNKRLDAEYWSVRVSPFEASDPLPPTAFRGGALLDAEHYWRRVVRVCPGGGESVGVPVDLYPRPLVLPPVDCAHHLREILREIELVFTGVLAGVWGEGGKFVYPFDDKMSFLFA
T1 sequence (P10236 whole entry): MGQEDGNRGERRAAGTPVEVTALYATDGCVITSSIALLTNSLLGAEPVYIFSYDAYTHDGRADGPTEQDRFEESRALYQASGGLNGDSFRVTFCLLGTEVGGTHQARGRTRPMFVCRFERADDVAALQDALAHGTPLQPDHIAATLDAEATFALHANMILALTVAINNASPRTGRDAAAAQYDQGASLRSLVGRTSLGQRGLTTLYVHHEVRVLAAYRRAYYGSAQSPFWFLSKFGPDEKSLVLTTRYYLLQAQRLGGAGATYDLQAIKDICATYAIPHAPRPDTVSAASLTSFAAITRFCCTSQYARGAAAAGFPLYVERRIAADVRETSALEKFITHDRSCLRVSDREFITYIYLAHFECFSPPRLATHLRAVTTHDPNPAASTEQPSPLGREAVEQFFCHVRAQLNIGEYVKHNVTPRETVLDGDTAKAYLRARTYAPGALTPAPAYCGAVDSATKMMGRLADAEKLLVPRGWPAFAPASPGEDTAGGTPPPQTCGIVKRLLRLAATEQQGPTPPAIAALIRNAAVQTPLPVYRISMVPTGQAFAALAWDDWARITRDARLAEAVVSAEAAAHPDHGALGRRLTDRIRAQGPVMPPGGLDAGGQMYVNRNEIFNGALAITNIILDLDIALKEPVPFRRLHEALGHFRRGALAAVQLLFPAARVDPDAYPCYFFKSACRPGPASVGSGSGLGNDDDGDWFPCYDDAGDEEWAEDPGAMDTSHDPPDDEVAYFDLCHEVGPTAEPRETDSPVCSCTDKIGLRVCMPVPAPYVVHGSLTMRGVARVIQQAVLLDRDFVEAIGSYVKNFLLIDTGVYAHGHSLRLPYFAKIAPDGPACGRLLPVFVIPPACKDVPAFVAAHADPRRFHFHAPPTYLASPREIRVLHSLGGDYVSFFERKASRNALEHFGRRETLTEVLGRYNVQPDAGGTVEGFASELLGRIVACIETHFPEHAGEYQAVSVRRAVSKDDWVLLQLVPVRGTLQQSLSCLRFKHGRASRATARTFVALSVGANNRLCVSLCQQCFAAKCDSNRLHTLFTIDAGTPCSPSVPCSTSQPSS
T1 sequence (P10189 whole entry): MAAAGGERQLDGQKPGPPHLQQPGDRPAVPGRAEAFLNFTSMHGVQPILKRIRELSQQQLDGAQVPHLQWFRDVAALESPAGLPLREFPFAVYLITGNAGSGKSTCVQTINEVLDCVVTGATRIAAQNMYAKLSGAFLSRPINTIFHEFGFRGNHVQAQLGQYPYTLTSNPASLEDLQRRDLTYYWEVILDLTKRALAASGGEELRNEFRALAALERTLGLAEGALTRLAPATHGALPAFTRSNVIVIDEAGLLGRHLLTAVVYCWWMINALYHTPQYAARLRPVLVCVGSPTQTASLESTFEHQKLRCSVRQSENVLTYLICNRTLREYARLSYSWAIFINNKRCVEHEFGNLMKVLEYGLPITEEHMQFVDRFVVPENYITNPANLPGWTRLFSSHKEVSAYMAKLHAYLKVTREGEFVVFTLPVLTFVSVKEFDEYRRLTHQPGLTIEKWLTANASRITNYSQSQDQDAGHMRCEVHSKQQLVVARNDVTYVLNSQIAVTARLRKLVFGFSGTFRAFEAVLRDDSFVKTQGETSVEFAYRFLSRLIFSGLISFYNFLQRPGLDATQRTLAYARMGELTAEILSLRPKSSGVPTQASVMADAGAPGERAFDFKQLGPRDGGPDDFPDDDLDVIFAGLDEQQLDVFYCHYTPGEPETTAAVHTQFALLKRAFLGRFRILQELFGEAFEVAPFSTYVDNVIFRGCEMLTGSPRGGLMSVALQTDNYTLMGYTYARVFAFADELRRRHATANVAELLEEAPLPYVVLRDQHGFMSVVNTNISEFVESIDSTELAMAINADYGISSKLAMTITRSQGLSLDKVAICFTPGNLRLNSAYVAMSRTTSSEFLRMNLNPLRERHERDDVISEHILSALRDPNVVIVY
How it was run: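 ATP hydrolysis was measured as inorganic phosphate (malachite green/molybdate, 650 nm) after 20 min at 34°. Reaction: 3 μg/mL purified Sf21-expressed UL5/UL8/UL52 helicase-primase, 25 μM single-stranded M13 DNA hybridized to 68-mer, 4 mM ATP, pH 7.5 HEPES buffer, 3.3% DMSO. Net absorbance change with and without inhibitor gave DNA-dependent ATPase activity.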

[1] = Inhibition of HCMV replication, plaque reduction assay (PRA, Hs-68 cells); format: cell-based, Human Cytomegalovirus (HCMV); details: human
How it was run: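 Hs-68 monolayers (80–90% confluent) were infected with ~50 PFU HCMV AD169 for 2 h at 37°, then given compound in DMEM/5% inactivated FBS, refreshed after 4 days and kept 4 more days. Plaques were counted after formaldehyde fixation and crystal violet staining. EC50 derives from percent plaque reduction versus untreated wells.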

HSV-1 strain F or KOS = assay: Inhibition of herpes simplex virus (HSV-1) replication in cell culture (BHK-21 cells, glycoprotein C ELISA); format: cell-based
How it was run: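 Replication readout: ELISA for HSV-1 late glycoprotein C (mAb C11, peroxidase-OPD, 450 nm) on glutaraldehyde-fixed cells. Monolayers (~50,000 cells/well) were infected with strain F or KOS (MOI 0.05 PFU/cell), then incubated 24 h at 37° with compound in 2% FBS α-MEM. EC50 derived from % inhibition.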

[2] = Group 1 Table 1 entries, read-out: Cytotoxic at this concentration (footnote *, PRA CMV)
[3] = Human alphaherpesvirus 1, BHK-21, Group 1 Table 1 entries
[4] = Group 1 Table 2 entries (Q = CH2)
[5] = Group 1 Table 2 entries, read-out: Cytotoxic at this concentration (footnote, PRA CMV)
[6] = Human alphaherpesvirus 1, BHK-21, Group 1 Table 2 entries
[7] = Human alphaherpesvirus 1, BHK-21, Group 1 Table 3 entries

| Structure (SMILES) | IC50 (HSV-1 helicase-primase; Group 1 Table 1 entries) | MCC at 192 h [1, 2] | EC50 (HSV-1 strain F or KOS; [3]) | IC50 (HSV-1 helicase-primase; [4]) | MCC at 192 h [1, 5] | EC50 (HSV-1 strain F or KOS; [6]) | further results |
| --- | --- | --- | --- | --- | --- | --- | --- |
| CCC(CC)C(=O)N(CC(=O)Nc1ccc(-c2csc(N)n2)cc1)Cc1ccccc1 [Example 104] | 0.078 µM | 18 µM | 0.016 µM | – | – | – | – |
| C[C@H](NCC(=O)Nc1ccc(-c2csc(N)n2)cc1)c1ccccc1 [Example 10] | 6.9 µM | 30 µM | 2.2 µM | – | – | – | – |
| Nc1nc(-c2ccc(NC(=O)CCN(Cc3ccccc3)C(=O)OCc3ccccc3)cc2)cs1 [Example 16] | – | – | – | 1.8 µM | 8 µM | 2.6 µM | – |
| CN(CC(=O)Nc1ccc(-c2csc(N)n2)cc1)C(=O)c1ccncc1 [Example 22] | 5.9 µM | 110 µM | 1.8 µM | – | – | – | – |
| CCCC(CCC)NCCC(=O)Nc1ccc(-c2csc(N)n2)cc1 [Example 23] | – | – | – | 45 µM | 9 µM | 6 µM | – |
| CCCC(CCC)N(CC(=O)Nc1ccc(-c2csc(N)n2)cc1)C(=O)C1CCCCC1 [Example 82] | 0.62 µM | 7 µM | 0.06 µM | – | – | – | – |
| Nc1nc(-c2ccc(NC(=O)CN(CC3CCCCC3)C(=O)C3CCCC3)cc2)cs1 [Example 63] | 0.78 µM | 21 µM | 0.25 µM | – | – | – | – |
| Nc1nc(-c2ccc(NC(=O)CCNC3Cc4ccccc4C3)cc2)cs1 [Example 10] | – | – | – | 21 µM | 14 µM | 3.9 µM | – |
| Nc1nc(-c2ccc(NC(=O)CCNCc3cccc(F)c3)cc2)cs1 [Example 4] | – | – | – | 5.2 µM | 3.7 µM | 2.2 µM | – |
| Nc1nc(-c2ccc(NC(=O)CCNCC3CCCCC3)cc2)cs1 [Example 22] | – | – | – | 29 µM | 6 µM | 6 µM | – |
| Nc1nc(-c2ccc(NC(=O)CCN(Cc3ccccc3)C(=O)C3CCCCC3)cc2)cs1 [Example 8] | – | – | – | 1.7 µM | 13 µM | 1.1 µM | – |
| Nc1nc(-c2ccc(NC(=O)CNCCCc3ccccc3)cc2)cs1 [Example 3] | 7.6 µM | 14 µM | 18 µM | – | – | – | – |
| Nc1nc(-c2ccc(NC(=O)CN(Cc3ccccc3)C(=O)c3ccccn3)cc2)cs1 [Example 27] | 1 µM | 36 µM | 0.28 µM | – | – | – | – |
| CN(C(=O)CN(Cc1ccccc1)C(=O)C1CCCCC1)c1ccc(-c2csc(N)n2)cc1 [Example 1] | – | – | – | – | – | – | IC50 (HSV-1 helicase-primase; Group 1 Table 3 entries): 0.053 µM; EC50 (HSV-1 strain F or KOS; [7]): 0.016 µM |
| CNc1nc(-c2ccc(NC(=O)CN(Cc3ccccc3)C(=O)c3ccccc3)cc2)cs1 [Example 6] | – | – | – | – | – | – | IC50 (HSV-1 helicase-primase; Group 1 Table 3 entries): 0.33 µM; EC50 (HSV-1 strain F or KOS; [7]): 0.012 µM |
| C[C@@H](NCC(=O)Nc1ccc(-c2csc(N)n2)cc1)c1ccccc1 [Example 11] | 3.7 µM | – | 1.3 µM | – | – | – | – |
| Nc1nc(-c2ccc(NC(=O)CCN(Cc3ccccc3)C(=O)c3ccccc3)cc2)cs1 [Example 3] | – | – | – | 2.1 µM | – | 2.2 µM | – |
| C[C@@H](c1ccccc1)N(CC(=O)Nc1ccc(-c2csc(N)n2)cc1)C(=O)OC(C)(C)C [Example 89] | 0.098 µM | – | 0.036 µM | – | – | – | – |
| CN(CC(=O)Nc1ccc(-c2csc(N)n2)cc1)Cc1ccccc1 [Example 15] | 3.3 µM | – | 0.95 µM | – | – | – | – |
